Source: article PMC4239038, “The Potent Cdc7-Dbf4 (DDK) Kinase Inhibitor XL413 Has Limited Activity in Many Cancer Cell Lines and Discovery of Potential New DDK Inhibitor Scaffolds” (PLoS ONE, 2014)
Structures can show the parent of a compound that is named as a salt.

biological target: T1, purified DDK (Homo sapiens, UniProt O00311); test: DDK thermal stability shift assay (TSA); type: binding; details: library screen, 20 µM compound
T1 construct: His6-Smt3 (SUMO) (N, cleaved yes); made in house; host or cells: E. coli BL21-RIPL (pKT37, pETDuet-1 vector)
T1 sequence (O00311 whole entry): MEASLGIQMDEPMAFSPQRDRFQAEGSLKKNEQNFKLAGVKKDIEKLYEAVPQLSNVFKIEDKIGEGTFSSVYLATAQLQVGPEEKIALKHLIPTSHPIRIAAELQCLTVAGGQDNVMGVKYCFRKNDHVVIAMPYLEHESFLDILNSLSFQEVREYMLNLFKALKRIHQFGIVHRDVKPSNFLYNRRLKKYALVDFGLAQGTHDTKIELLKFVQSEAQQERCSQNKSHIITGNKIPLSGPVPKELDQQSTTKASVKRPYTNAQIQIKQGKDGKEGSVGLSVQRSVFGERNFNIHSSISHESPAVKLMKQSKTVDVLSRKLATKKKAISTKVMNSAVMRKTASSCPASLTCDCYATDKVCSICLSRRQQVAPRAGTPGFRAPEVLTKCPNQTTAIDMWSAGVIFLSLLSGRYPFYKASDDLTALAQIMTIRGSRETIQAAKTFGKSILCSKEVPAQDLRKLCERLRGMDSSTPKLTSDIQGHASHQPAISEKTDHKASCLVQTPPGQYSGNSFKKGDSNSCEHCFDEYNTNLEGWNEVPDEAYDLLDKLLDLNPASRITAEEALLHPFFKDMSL
T1 sequence (Q9UBU7 341-674 partner limits assumed): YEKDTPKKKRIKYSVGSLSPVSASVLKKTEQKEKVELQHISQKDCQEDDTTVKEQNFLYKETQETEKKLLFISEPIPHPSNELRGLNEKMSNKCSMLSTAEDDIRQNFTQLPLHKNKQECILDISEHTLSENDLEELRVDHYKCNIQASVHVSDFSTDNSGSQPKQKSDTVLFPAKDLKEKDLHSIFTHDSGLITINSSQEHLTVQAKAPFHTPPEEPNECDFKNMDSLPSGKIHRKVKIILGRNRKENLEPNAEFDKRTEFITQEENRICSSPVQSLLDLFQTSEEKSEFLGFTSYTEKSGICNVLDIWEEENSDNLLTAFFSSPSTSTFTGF

Point of comparison: `Cc1cc(C(C)Nc2ccccc2)c2nc(N3CCOCC3)cc(=O)n2c1` (centres unmarked) [PI 3-Kβ Inhibitor VI, TGX-221], ΔTm 0 °C. Against it:
- O=c1[nH]c2ccccc2n1C1CCN(Cc2ccc(-c3nc4cc5nc[nH]c5cc4nc3-c3ccccc3)cc2)CC1 — the same, 0 °C
- COc1cc2ncnc(N3CCN(C(=O)Nc4ccc(Oc5ccccc5)cc4)CC3)c2cc1OC — the same, 0 °C
- COc1cc2c(cc1OC)-c1[nH]nc(Nc3cccc(F)c3)c1C2 — higher, 0.3 °C
- O=C1Cc2c([nH]c3ccc(Br)cc23)-c2ncccc2N1 [1-Azakenpaullone] — higher, 0.6 °C
- Cc1ncc2ccccc2c1C#N [4-Cyano-3-methylisoquinoline] — the same, 0 °C
- Nc1ncnc2c1c(I)cn2[C@@H]1O[C@H](CO)[C@@H](O)[C@H]1O [5-Iodotubercidin] — higher, 1.9 °C
- CCN(CC)CCCCN1c2ccccc2Oc2ccc(Cl)cc21.Cl [10-DEBC hydrochloride] — higher, 0.8 °C
- CC(C)(C)c1cc(C=C(C#N)C#N)cc(Br)c1O [AG 1024] — higher, 1.2 °C
- COc1cc2ncc(-c3ccccc3)nc2cc1OC [AG 1296] — the same, 0 °C
- COc1cc2ncnc(Nc3cccc(Cl)c3)c2cc1OC [AG 1478] — higher, 0.3 °C
- Cc1nc2cc3nc(-c4cccs4)cnc3cc2n1C [AGL 2043] — the same, 0 °C
- O=c1cc(-c2cccc3c2Sc2ccccc2S3)oc(N2CCOCC2)c1 [ATM Kinase Inhibitor] — higher, 1.1 °C
- O=C1NC(=O)c2c1c1c3ccccc3[nH]c1c1[nH]c3ccccc3c21 [Arcyriaflavin A] — higher, 0.5 °C
- Cc1ccc(S(=O)(=O)/C=C/C#N)cc1 [BAY 11-7082] — the same, 0 °C
- CN1CCC(Nc2ncc3ncnc(Nc4ccc(F)c(Cl)c4)c3n2)CC1.Cl.Cl [BIBX 1382 dihydrochloride] — higher, 0.8 °C
- Cn1cnc2cc3c(Nc4cccc(Br)c4)ncnc3cc21 [BPIQ-I] — higher, 0.2 °C
- O=C(O)/C=C/c1cc(Br)c(Br)c(Br)c1Br [Casein Kinase II Inhibitor III, TBCA] — higher, 32 °C
- O=C1N=C(NCc2cccs2)SC1=Cc1ccc2ncccc2c1 [Cdk1 Inhibitor IV, RO-3306, 5-(6-Quinolinylmethylene)-2-[(2-thienylmethyl)amino]-4(5H)-thiazolone] — higher, 2.2 °C
- CCN(CC)C(=O)c1ccc(Nc2nc(OCC3CCCCC3)c3[nH]cnc3n2)cc1 [Cdk2 Inhibitor IV, NU6140] — higher, 0.2 °C
- Cc1nc(N)sc1-c1ccnc(Nc2cccc([N+](=O)[O-])c2)n1 [Cdk2/9 Inhibitor] — higher, 0.3 °C
- Cc1ccc2c(=O)c3ccccc3n(CCCN)c2c1C.O=C(O)/C=C\C(=O)O [ER 27319 maleate] — higher, 0.5 °C
- Nc1[nH]nc2nnc(-c3c(-c4ccccc4)nn4ccccc34)cc12 [ERK Inhibitor II, FR180204] — the same, 0 °C
- c1ccc(-c2cnc(Nc3ccc(OCCN4CCCC4)cc3)s2)cc1 [Flt-3 Inhibitor III] — higher, 0.3 °C
- O=C1Nc2ccc(I)cc2C1=Cc1cc(Br)c(O)c(Br)c1 [GW 5074, 3-(3,5-Dibromo-4-hydroxy-benzylidene)-5-iodo-1,3-dihydro-indol-2-one] — higher, 3.5 °C
- CNCCNS(=O)(=O)c1cccc2cnccc12.Cl.Cl [H-8, Dihydrochloride] — higher, 0.5 °C
- Cl.Cl.NC(N)=NCCNS(=O)(=O)c1cccc2cnccc12 [HA 1004, Dihydrochloride] — the same, 0 °C
- O=C(c1ccc(Nc2nccc(-c3cc4ccccc4s3)n2)cc1)N1CCC(N2CCCC2)CC1 [IKK 16] — higher, 1.5 °C
- O=C(c1ccc(Nc2nccc(-c3cc4ccccc4s3)n2)cc1)N1CCC(N2CCCC2)CC1 [IKK Inhibitor VII] — higher, 1.7 °C
- O=C(Nc1cc(Cl)cc2c1[nH]c1cnccc12)c1cccnc1 [IKK Inhibitor X] — the same, 0 °C
- N#Cc1c(C2CCNCC2)cc(-c2c(O)cccc2OCC2CC2)nc1N [IKK-2 Inhibitor VIII] — higher, 1.9 °C
- NC(=O)Nc1sc(-c2ccccc2)cc1C(N)=O [IKK-2 Inhibitor VI] — higher, 1.2 °C
- NC(=O)Nc1cc(-c2ccccc2)sc1C(N)=O [IKK-2 Inhibitor XI] — higher, 0.3 °C
- O=C1Nc2ccc(I)cc2/C1=C1/Nc2ccccc2/C1=N\O [Indirubin-3'-monoxime, 5-Iodo-] — higher, 0.5 °C
- Cn1nc2c3c(cccc31)C(=O)c1ccccc1-2 [JNK Inhibitor, Negajve Control] — the same, 0 °C
- CCCCCCOC(=O)[C@]1(O)C[C@@H]2O[C@@]1(C)n1c3ccccc3c3c4c(c5c6ccccc6n2c5c31)C(=O)NC4 [KT5720] — higher, 0.2 °C
- COc1cc2nccc(Oc3ccc(NC(=O)Nc4ccc(F)cc4F)c(F)c3)c2cc1OC [Ki 8751] — higher, 0.2 °C
- C/C(O)=C(\C#N)C(=O)Nc1cc(Br)ccc1Br [LFM-A13] — the same, 0 °C
- Cl.O=c1cc(N2CCOCC2)oc2c(-c3ccccc3)cccc12 [LY 294002 hydrochloride] — higher, 0.8 °C
- Cl.O=S(=O)(c1cccc2c(Cl)cccc12)N1CCCNCC1 [ML 9 hydrochloride] — higher, 0.6 °C
- Cl.O=S(=O)(c1cccc2c(I)cccc12)N1CCCNCC1 [ML-7, Hydrochloride] — higher, 0.3 °C
- Cc1[nH]c(/C=C2\C(=O)Nc3ccc(S(=O)(=O)N(C)c4cccc(Cl)c4)cc32)c(C)c1C(=O)N1CCN(C)CC1 [Met Kinase Inhibitor] — higher, 0.2 °C
- Nc1ccc2ncnc(NCCc3ccc(Oc4ccccc4)cc3)c2c1 [NF-kB Acjvajon Inhibitor] — higher, 0.3 °C
- CNc1cc2c(Nc3cccc(Br)c3)ncnc2cn1 [PD 158780] — higher, 0.2 °C
- O=C1NC(=O)C(=Cc2ccc(-c3ccc(F)cc3O)o2)S1 [PI 3-Kγ/CKII Inhibitor] — higher, 0.3 °C
- Nc1ccc(-c2cccc3c(=O)cc(N4CCOCC4)oc23)cc1 [PI 828] — higher, 0.6 °C
- CCCOc1ccc(/C=C2/SC(=O)NC2=O)cc1 [PIM1/2 Kinase Inhibitor VI] — higher, 0.2 °C
- O=C1NC(=O)C(c2cn(CCCn3ccnc3)c3ccccc23)=C1Nc1ccccc1 [PKCb Inhibitor] — higher, 0.2 °C
- O=C1Nc2ccc(Cl)cc2/C1=C/c1cc(Cl)c(O)c(Cl)c1 [PKR Inhibitor, NegaKve Control] — higher, 0.2 °C
- Nc1ncnc2c1cnn2-c1ccccc1 [PP3] — higher, 0.6 °C
- COc1ccc2nc3c(c(C)nn3C)c(NCCOCCO)c2c1 [Ras/Rac TransformaEon Blocker, SCH 51344] — higher, 0.5 °C
- O=C(Nc1ccncc1)Nc1c(Cl)cc(Cl)cc1Cl [Rho Kinase Inhibitor II] — the same, 0 °C
- O=C(Nc1ccc(-c2cn[nH]c2)cc1)C1COc2ccccc2O1 (centres unmarked) [Rho Kinase Inhibitor V] — higher, 1.5 °C
- CS(=O)(=O)O.Cn1cc(C2=C(c3cn(CCCSC(=N)N)c4ccccc34)C(=O)NC2=O)c2ccccc21 [Ro 31-8220 mesylate] — higher, 1.5 °C

Point of comparison: `CC(=O)c1c(O)c(C)c(O)c(Cc2c(O)c3c(c(C(=O)/C=C/c4ccccc4)c2O)OC(C)(C)C=C3)c1O` [Ro]lerin, 3'-[(8-Cinnamoyl-5,7-dihydroxy-2,2-dimethyl-2H-1-benzopyran-6-yl)methyl]-2',4',6'-trihydroxy-5'-methylacetophenone], ΔTm at 20 µM 2.4 °C. Against it:
- CCN(CC)CCCCN1c2ccccc2Oc2ccc(Cl)cc21 [Akt Inhibitor X] — lower, 0.3 °C
- O=C1Cc2c([nH]c3ccc([N+](=O)[O-])cc23)-c2ccccc2N1 [Alsterpaullone] — lower, 0.5 °C
- O=C1NC(=O)c2cc(Nc3ccc(F)cc3)c(Nc3ccc(F)cc3)cc21 [CGP 53353] — lower, 0.4 °C
- O=S(=O)(c1cccc2cnccc12)N1CCCNCC1 [Fasudil hydrochloride] — lower, 0.9 °C
- O=C1NC(=O)c2c1c1c3ccccc3[nH]c1n1cncc21 [Isogranulajmide] — lower, 1 °C
- O=c1cc(N2CCOCC2)oc2c(-c3ccccc3)cccc12 [LY 294002] — lower, 0.8 °C
- O=c1cc(N2CCNCC2)oc2c(-c3ccccc3)cccc12 [LY 303511] — lower, 0.1 °C
- CC[C@H](CO)Nc1nc(NCc2ccccc2O)c2ncn(C(C)C)c2n1 [Olomoucine II] — lower, 0.2 °C
- Cn1cnc2c(NCc3ccccc3)nc(NCCO)nc21 [Olomoucine] — lower, 0.1 °C
- Cc1[nH]c(/C=C2\C(=O)Nc3ccc(S(=O)(=O)Cc4c(Cl)cccc4Cl)cc32)c(C)c1C(=O)N1CCC[C@@H]1CN1CCCC1 [PHA 665752] — lower, 0.4 °C
- CC(C)[C@H](CO)Nc1nc(Nc2cccc(Cl)c2)c2ncn(C(C)C)c2n1 [Purvalanol A] — lower, 0.2 °C
- CO[C@H]1C[C@@H]2CC[C@@H](C)[C@@](O)(O2)C(=O)C(=O)N2CCCC[C@H]2C(=O)O[C@H]([C@H](C)C[C@@H]2CC[C@@H](O)[C@H](OC)C2)CC(=O)[C@H](C)/C=C(\C)[C@@H](O)[C@@H](OC)C(=O)[C@H](C)C[C@H](C)/C=C/C=C/C=C/1C [Rapamycin] — lower, 0 °C
- c1nc2nc(Nc3ccc(N4CCOCC4)cc3)nc(NC3CCCCC3)c2[nH]1 [Reversine] — lower, 1.4 °C
- Oc1ccc(-c2nc(-c3ccncc3)c(-c3ccc(F)cc3)[nH]2)cc1 [SB 202190] — lower, 0.6 °C

same assay, conditions: library screen, 20 µM compound; 20 µM

Point of comparison: `O=C(NC(NC(=S)Nc1ccc(F)c([N+](=O)[O-])c1)C(Cl)(Cl)Cl)C(c1ccccc1)c1ccccc1` (centres unmarked) [CGK 733], ΔTm 0.2 °C. Against it:
- Nc1ncnc2n[nH]c(Nc3ccc(F)cc3)c12 [CGP 57380] — higher, 0.5 °C
- O=c1cc(N2CCOCC2)oc2c1ccc1ccccc12 [DNA-PK Inhibitor II] — higher, 1 °C
- CN(C)CCCn1cc(C2=C(c3c[nH]c4ccccc34)C(=O)NC2=O)c2ccccc21 [GF 109203X] — higher, 0.6 °C
- Cl.Cl.O=S(=O)(NCCNC/C=C/c1ccc(Br)cc1)c1cccc2cnccc12 [H 89 dihydrochloride] — higher, 0.3 °C
- Nc1[nH]nc2nc3ccccc3nc12 [NSC 693868] — the same, 0.2 °C
- O=c1cc(N2CCOCC2)oc2c1ccc1ccccc12 [NU 7026] — higher, 1.2 °C

same assay, conditions: titration across a 200-fold range of inhibitor concentrations

For `O=c1c(-c2ccc(O)cc2)coc2cc(O)cc(O)c12` [Genistein, 5,7-Dihydroxy-3-(4-hydroxyphenyl)-4H-1-benzopyran-4-one], the ΔTm profile was “increased ΔTm at lower inhibitor concentrations and then decreased ΔTm at 5, 10 and 20 µM concentrations”.
